Calls of active or inactive are those of the source. The calls are words filed in the database; no cut-off is given here. Residues, ends and D or L forms follow the SMILES beside them. *: point of attachment. S(CH2)2OCO2(CPT-20-yl) = CC[C@@]1(OC(=O)OCCS*)C(=O)OCc2c1cc1n(c2=O)Cc2cc3ccccc3nc2-1
How the values were obtained:
SK-BR-3 [1] = assay: Induction of apoptosis in human SK-BR-3 cells assessed as live cells at 1 uM incubated for 24 hrs by Annexin V-FITC/PI staining based flow cytometry analysis (Rvb= 89.4%); type: functional
[2] = molecular target: Receptor tyrosine-protein kinase erbB-2 (Homo sapiens, UniProt P04626); assay: Binding affinity to recombinant HER2 (unknown origin) assessed as dissociation constant by SPR analysis
NCI-N87 = assay: Cytotoxicity against HER-positive human NCI-N87 cells assessed as inhibition of cell growth incubated for 48 hrs by MTT assay; type: functional, cell-based; conditions: NCI-N87, 48 h
SK-BR-3 [3] = assay: Induction of cell cycle arrest in human SK-BR-3 cells assessed as accumulation of cells at S phase at 1 uM incubated for 24 hrs by flow cytometry analysis (reference value: 23%); type: functional
SK-BR-3 [4] = assay: Induction of cell cycle arrest in human SK-BR-3 cells assessed as accumulation of cells at S phase at 2 uM incubated for 24 hrs by flow cytometry analysis (reference value: 23%); type: functional
[5] = Metabolic stability in Sprague-Dawley rat plasma assessed as drug degradation incubated for 120 mins by LC-MS/MS analysis; type: ADME, cell-free; conditions: 2 h
[6] = Metabolic stability in Sprague-Dawley rat plasma assessed as half life incubated for 120 mins by LC-MS/MS analysis; type: ADME, cell-free
[7] = Hemolytic activity in rat erythrocytes at 3.125 to 100 uM by microplate reader analysis relative to control; type: toxicity, cell-based, Erythrocyte; conditions: dose 3.125-100 µM, read-out: Activity
[8] = […] in nude mouse xenografted with human SK-BR-3 cells assessed as effect on aspartate aminotransferase level at 8 micromol/kg, iv administered every 3 days for 14 days; type: organism-based; conditions: in vivo, 336 h, dose 8 µmol/kg, time 14 day
[9] = Renal toxicity in nude mouse xenografted with human SK-BR-3 cells assessed as effect on blood urea nitrogen level at 8 micromol/kg, iv administered every 3 days for 14 days; type: organism-based; conditions: in vivo, 336 h, dose 8 µmol/kg, time 14 day
[10] = Toxicity in nude mouse xenografted with human SK-BR-3 cells assessed as effect on total protein level at 8 micromol/kg, iv administered every 3 days for 14 days; type: organism-based; conditions: in vivo, 336 h, dose 8 µmol/kg, time 14 day
[11] = Toxicity in nude mouse xenografted with human SK-BR-3 cells assessed as heart damage at 8 micromol/kg, iv administered every 3 days for 14 days by H and E staining based analysis; type: organism-based; conditions: in vivo, 336 h, dose 8 µmol/kg, time 14 day
[12] = Toxicity in nude mouse xenografted with human SK-BR-3 cells assessed as lung damage at 8 micromol/kg, iv administered every 3 days for 14 days by H and E staining based analysis; type: organism-based; conditions: in vivo, 336 h, dose 8 µmol/kg, time 14 day
[13] = Toxicity in nude mouse xenografted with human SK-BR-3 cells assessed as cellular necrosis at 8 micromol/kg, iv administered every 3 days for 14 days by H and E staining based analysis; type: organism-based; conditions: in vivo, 336 h, dose 8 µmol/kg, time 14 day
[14] = molecular target: T1, DNA topoisomerase 1 (Homo sapiens) (UniProt P11387); assay: Inhibition of topoisomerase 1 (unknown origin) assessed as relaxation of supercoiled plasmid pBR322 DNA at 10 uM preincubated for 20 mins followed by pBR322 DNA addition and measured after 30 mins by agarose gel electrophoresis analysis; conditions: time 50.0 min
T1 sequence (whole entry): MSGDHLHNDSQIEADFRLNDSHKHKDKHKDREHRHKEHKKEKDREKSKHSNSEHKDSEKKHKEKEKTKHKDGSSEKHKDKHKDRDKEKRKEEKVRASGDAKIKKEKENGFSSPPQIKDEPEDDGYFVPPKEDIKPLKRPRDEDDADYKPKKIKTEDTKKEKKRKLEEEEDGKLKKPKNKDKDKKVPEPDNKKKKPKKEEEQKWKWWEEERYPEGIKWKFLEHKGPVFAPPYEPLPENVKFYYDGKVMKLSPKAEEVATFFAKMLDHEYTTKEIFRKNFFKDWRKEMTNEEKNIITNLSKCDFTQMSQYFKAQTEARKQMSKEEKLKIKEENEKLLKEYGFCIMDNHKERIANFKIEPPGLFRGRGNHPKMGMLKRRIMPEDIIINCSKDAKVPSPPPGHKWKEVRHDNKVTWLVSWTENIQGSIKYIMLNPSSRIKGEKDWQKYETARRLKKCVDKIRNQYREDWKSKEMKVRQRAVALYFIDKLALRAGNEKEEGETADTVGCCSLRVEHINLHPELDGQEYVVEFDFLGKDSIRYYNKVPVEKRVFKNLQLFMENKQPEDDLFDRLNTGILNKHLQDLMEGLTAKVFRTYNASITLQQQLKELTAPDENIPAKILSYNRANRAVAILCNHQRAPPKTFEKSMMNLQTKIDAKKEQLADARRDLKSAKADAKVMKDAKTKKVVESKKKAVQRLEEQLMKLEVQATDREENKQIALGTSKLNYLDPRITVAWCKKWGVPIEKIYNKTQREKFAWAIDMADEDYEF

Chain of Receptor tyrosine-protein kinase erbB-2 (P04626 whole entry): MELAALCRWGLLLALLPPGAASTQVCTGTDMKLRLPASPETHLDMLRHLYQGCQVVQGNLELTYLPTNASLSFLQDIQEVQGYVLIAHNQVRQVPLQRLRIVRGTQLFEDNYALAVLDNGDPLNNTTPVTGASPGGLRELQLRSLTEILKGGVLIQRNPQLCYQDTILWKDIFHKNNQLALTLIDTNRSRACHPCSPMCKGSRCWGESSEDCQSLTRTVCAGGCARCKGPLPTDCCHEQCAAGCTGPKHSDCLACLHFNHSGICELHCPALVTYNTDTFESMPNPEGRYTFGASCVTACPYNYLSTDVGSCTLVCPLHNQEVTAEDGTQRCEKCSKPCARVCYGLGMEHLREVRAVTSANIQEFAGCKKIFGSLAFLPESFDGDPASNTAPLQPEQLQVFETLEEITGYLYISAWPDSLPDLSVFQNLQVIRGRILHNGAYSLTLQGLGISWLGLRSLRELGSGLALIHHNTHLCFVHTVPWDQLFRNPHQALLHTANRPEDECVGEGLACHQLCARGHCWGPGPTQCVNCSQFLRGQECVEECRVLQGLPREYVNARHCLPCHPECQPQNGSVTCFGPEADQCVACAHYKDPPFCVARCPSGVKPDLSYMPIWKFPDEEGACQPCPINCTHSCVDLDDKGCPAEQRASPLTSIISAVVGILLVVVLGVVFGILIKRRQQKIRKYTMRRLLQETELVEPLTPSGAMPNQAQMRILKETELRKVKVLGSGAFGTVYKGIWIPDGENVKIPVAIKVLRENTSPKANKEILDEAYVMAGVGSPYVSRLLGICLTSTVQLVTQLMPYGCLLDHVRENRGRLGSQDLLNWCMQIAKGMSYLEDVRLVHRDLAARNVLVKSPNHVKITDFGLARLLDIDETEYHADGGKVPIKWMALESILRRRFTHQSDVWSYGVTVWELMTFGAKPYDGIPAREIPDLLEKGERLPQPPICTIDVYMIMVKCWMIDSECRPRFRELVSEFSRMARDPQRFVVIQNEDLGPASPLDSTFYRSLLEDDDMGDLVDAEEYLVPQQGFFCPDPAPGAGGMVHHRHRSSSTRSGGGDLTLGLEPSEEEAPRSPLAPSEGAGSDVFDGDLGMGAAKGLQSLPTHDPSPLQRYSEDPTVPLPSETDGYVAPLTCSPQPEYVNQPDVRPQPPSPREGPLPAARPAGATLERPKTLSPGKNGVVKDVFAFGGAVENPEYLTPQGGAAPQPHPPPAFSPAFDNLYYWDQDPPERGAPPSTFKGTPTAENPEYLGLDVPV

| Compound | Activity (SK-BR-3 [1]) [%] | Kd [2] [nM] | IC50 (NCI-N87) [nM] | Activity (SK-BR-3 [3]) [%] | Activity (SK-BR-3 [4]) [%] | Stability [5] | half-life [6] [min] | hemolysis at 100 µM [7] [%] | Activity [8] | Activity [9] | Activity [10] | Activity [11] | Activity [12] | Activity [13] | inhibition [14] |
| --- | --- | --- | --- | --- | --- | --- | --- | --- | --- | --- | --- | --- | --- | --- | --- |
| CC[C@H](C)[C@H](NC(=O)[C@@H](N)CCCNC(=N)N)C(=O)N[C@@H](CCCCN)C(=O)N1CCC[C@H]1C(=O)N[C@@H](CCCNC(=N)N)C(=O)N[C@@H](CCCCN)C(=O)NCC(=O)N[C@@H](Cc1ccc(O)cc1)C(=O)N[C@H](C(=O)N[C@@H](CCCNC(=N)N)C(=O)NCC(=O)N[C@@H](CSSCCOC(=O)O[C@]1(CC)C(=O)OCc2c1cc1n(c2=O)Cc2cc3ccccc3nc2-1)C(=O)NCC(=O)N[C@@H](CC(N)=O)C(=O)N1CCC[C@H]1C(=O)N[C@@H](CC(N)=O)C(=O)N[C@@H](Cc1c[nH]c2ccccc12)C(=O)NCC(=O)N[C@@H](CCCNC(=N)N)C(=O)N[C@@H](CO)C(=O)N[C@@H](Cc1c[nH]c2ccccc12)C(=O)N[C@@H](Cc1ccc(O)cc1)C(=O)N[C@@H](CC(N)=O)C(=O)N[C@@H](CCC(N)=O)C(=O)N[C@@H](CCCNC(=N)N)C(=O)N[C@@H](Cc1ccccc1)C(=O)N[C@@H](CCCCN)C(N)=O)[C@@H](C)O (H-RIKPRKGYTRGC(S(CH2)2OCO2(CPT-20-yl))GNPNWGRSWYNQRFK-NH2) | 57.6 | 330 | 3290 | 39.2 | 48.5 | Unstable | 15 | < 10 | Non-Toxic | Non-Toxic | Non-Toxic | Non-Toxic | Non-Toxic | Non-Toxic |  |
| CC[C@H](C)[C@H](NC(=O)[C@@H](N)CCCNC(=N)N)C(=O)N[C@@H](CCCCN)C(=O)N1CCC[C@H]1C(=O)N[C@@H](CCCNC(=N)N)C(=O)N[C@@H](CCCCN)C(=O)NCC(=O)N[C@@H](Cc1ccc(O)cc1)C(=O)N[C@H](C(=O)N[C@@H](CCCNC(=N)N)C(=O)NCC(=O)N[C@@H](CSSCCOC(=O)O[C@]1(CC)C(=O)OCc2c1cc1n(c2=O)Cc2cc3ccccc3nc2-1)C(=O)NCC(=O)N[C@@H](CSSCCOC(=O)O[C@]1(CC)C(=O)OCC2=C1C=C1c3nc4ccccc4cc3NC1C2=O)C(=O)NC(=O)C[C@H](NC(=O)CN)C(=O)N1CCC[C@H]1C(=O)N[C@@H](CC(N)=O)C(=O)N[C@@H](Cc1c[nH]c2ccccc12)C(=O)NCC(=O)N[C@@H](CCCNC(=N)N)C(=O)N[C@@H](CO)C(=O)N[C@@H](Cc1c[nH]c2ccccc12)C(=O)N[C@@H](Cc1ccc(O)cc1)C(=O)N[C@@H](CC(N)=O)C(=O)N[C@@H](CCC(N)=O)C(=O)N[C@@H](CCCNC(=N)N)C(=O)N[C@@H](Cc1ccccc1)C(=O)N[C@@H](CCCCN)C(N)=O)[C@@H](C)O (stereo partly drawn) | 51.2 | 437 | 1780 | 43.45 | 49.2 | Unstable | 15 |  | Non-Toxic | Toxic | Non-Toxic | Non-Toxic | Non-Toxic | Non-Toxic | Active |

— ChEMBL document CHEMBL5096235, “In Silico Exploration and Biological Evaluation of Bispecific Peptides Derived from Anti-HER2 Antibodies and Peptide-Camptothecin Conjugates for HER2-Positive Breast Cancer” (J Med Chem, 2022)
